Consider six compounds from patent EP0137426A2, “2-Mercaptothiazole derivatives, process for their preparation and utilization of 2-mercaptothiazole derivatives in pharmaceutical compounds” (BAYER AG, priority 1983, dated 1985).

The subject of assay [1] is TXA2. The conditions noted are these: literature: Tanaka, Harada, Katori, Prostaglandins 17, 235, 1979; cited from earlier work.
The test system of assay [2] is TXA2. Nature of the assay: Inhibition of thromboxane-induced isometric contraction of rabbit aortic strips (TXA2 generated from washed human platelets). Format: cell-based, Kaninchen. The settings on record: Oryctolagus cuniculus, Platelet, thromboxane-induced vessel contraction, read-out: Hemmung (%) (x̄ ± SEM); for inhibition at 30 µg/mL: Konzentration 3 x 10^-5 g/ml. Here is the method: Gefäßkonstriktorische Wirkung
Die gefäßkonstriktorische Wirkung von Thromboxan wird mit Hilfe der isometrischen Kontraktion von Kaninchenaortenstreifen gemessen (Furchtgott, R. F; Bhadrakom, S. J., Pharmacol. Exp. Ther. 108, 129 - 143, 1953). Männliche Kaninchen (Russen, Gewicht 1,8 - 2 kg) werden mit Pento- -barbital getötet. Die Brustaorta wird entnommen und spiral--förmig aufgeschnitten. Die Streifen (Breite 2 - 3 mm, Länge 3 cm) werden unter einer Spannung von 2 g in 10 ml - Organbädern, die Carbogen durchperlten Krebs-Henseleit-Puffer von 37°C enthalten, suspendiert. Zur Erhöhung der Spezifität der Methode enthält der Puffer folgende Inhibitoren (jeweils 100 µg/l): Propanololhydrochlorid, Phentolamin, Cyproheptadin, Atropin, Mebhydrolin und Indometacin. Die Kontraktionen werden nach Erreichen eines konstanten Basaltonus durch TXA2, generiert aus gewaschenen Human-Thrombozyten, ausgelöst.
Zur Präparation der Thrombozytensuspension wird Humanblut in 1 %iger EDTA-Lösung aufgenommen und bei 150 G 20 Minuten lang zentrifugiert. Das plättchenreiche Plasma wird abgehebert und bei 750 G für 20 Minuten zentrifugiert. Das plättchenarme Plasma wird abdekantiert und die verbleibenden Plättchen in Puffer (0,15 M NaCl, 0,15 M Tris/ HC1 pH 7.4, 77 mM EDTA; 90 : 8 : 2) aufgenommen.
Die Thromboxan-Generation erfolgt durch Stimulation der Plättchen mit Thrombin bei 37°C unter Rühren. Nach 30 sec wird die Plättchensuspension zu dem mit Prüfsubstanz bzw. Lösungsmittel vorbehandelten Aortenstreifen gegeben und damit die Kontraktionen ausgelöst. Die prozentuale Hemmung errechnet sich aus den entsprechenden Ausschlägen.
An den in der folgenden Tabelle 1 genannten Verbindungen wurde die spezifische Hemmung der durch Thromboxan induzierten Gefäßkontraktionen bestimmt.

In another assay the test system is Thrombozyten. Nature of the assay: Inhibition of collagen-induced platelet aggregation in platelet-rich plasma (turbidimetric, Born). Format: cell-based. The conditions noted are these: Homo sapiens, Konzentration 3 x 10^-5 g/ml, PRP, 37°C, read-out: Hemmung (%) (x̄ ± SEM). The procedure:
Thrombocytenaggregationshemmung
Für die Bestimmung der thrombocytenaggregationshemmenden Wirkung wird Blut von gesunden Spendern, die mindestens 14 Tage lang kein Medikament eingenommen hatten, verwendet. Das Blut wird in 3.8 %iger Natriumcitratlösung aufgenommen. Plättchenreiches Plasma (PRP) wird durch 20 min. lange Zentrifugation bei 150 G bei Raumtemperatur gewonnen (Jürgens/Beller: Klinische Methoden der Blutgerinnungsanalyse; Thieme-Verlag, Stuttgart 1959). Die Plättchenaggregation wird nach der turbidometrischen Methode (Born, G. V. R.: J. Physiol. 162 67, 1962) im Aggregometer bei 37°C bestimmt. Hierzu wird PRP mit Prüfsubstanz bei 37°C inkubiert und anschließend die Aggregation durch Zugabe einer Kollagensuspension ausgelöst. Die prozentuale Hemmung errechnet sich aus den entsprechenden Ausschlägen.
An den in der folgenden Tabelle 2 genannten Verbindungen wurde die Hemmung der Kollagen-induzierten Thrombozytenaggregation untersucht.

Turning to `CCOC(=O)c1c(C)cc2c(CO)n[nH]c(=O)c2c1C` [Phthalazinol], the “Wirkung als spezifischer TXA2-Antagonist” value in the assay with TXA2 [1] is on record as “nicht als spezifischer TXA2-Antagonist”.

`O=C(O)CCCCSc1nc2ccccc2s1` [Beispiel 25]: the inhibition at 30 µg/mL in the assay with TXA2 [2] is 31 ± 18%.

For the compound `O=C(O)CCCSc1nc2cc(F)c(F)cc2s1` [Beispiel 11a], the inhibition at 30 µg/mL in the assay on TXA2 [2] is 82 ± 1%.

Consider `O=C(O)CCCSc1nc2ccccc2s1` [Beispiel 9], for which the inhibition at 100 µg/mL in the assay on TXA2 [2] (Konzentration 1 x 10^-4 g/ml) was 100%. Moreover, the inhibition at 10 µg/mL in the assay with TXA2 [2] (Konzentration 1 x 10^-5 g/ml) turned out to be 58 ± 7%. Moreover, the inhibition at 1 µg/mL in the assay on TXA2 [2] (Konzentration 1 x 10^-6 g/ml) is 16 ± 7%. The inhibition at 30 µg/mL in the assay with TXA2 [2] worked out at 84 ± 3%; in the assay with Thrombozyten it was 52%. For the same compound, the inhibition at 3 µg/mL in the assay on TXA2 [2] (Konzentration 3 x 10^-6 g/ml) is 34 ± 6%.

With `O=C(O)CCCCSc1nc(Cl)c(Cl)s1` [Beispiel 23], the inhibition at 30 µg/mL in the assay on TXA2 [2] amounted to 47 ± 10%.

As for `O=C(O)CCCSc1nc(Cl)c(Cl)s1` [Beispiel 21], the figures for the inhibition at 30 µg/mL in the assay on TXA2 [2] and in the assay on Thrombozyten were 59 ± 6% and 69%, respectively.
